Measurements reported in patent US8889711B2, “Pyrazolopyridine derivatives as anticancer agent” (Pierre Fabre Medicament, priority 2009, dated 2014).

How the values were obtained:
karpas 299 cells = assay: Measurement of inhibition of cell proliferation (Karpas), ATPlite; type: cell-based
Experimental: Measurement of Inhibition of Cell Proliferation (Karpas):
The antiproliferative activities of the compounds were measured using the ATPlite technique (Perkin Elmer).
The non-adhering cells (karpas 299) are seeded in 96-well plates (300 000 cells/ml) on Day 1 at a concentration compatible with logarithmic growth for 72 hours required for evaluation of the compounds. All the cells are treated on Day 1, then placed in an incubator at 37° C. under 5% CO2 atmosphere. Cell viability is evaluated on Day 4 by assay of released ATP, characteristic of viable cells. The IC50 values are determined by non-linear regression on the basis of a sigmoid model of dose/response relationship, Hill's slope coefficient being left variable, performed using GraphPad software sequence with the supplied algorithm.

ALK kinase = ALK kinase (Homo sapiens, UniProt Q9UM73); assay: Test to measure ALK kinase inhibition (GST-PLCγ1 substrate, anti-phosphotyrosine ELISA, luminescence); type: biochemical; settings: ALK kinase 180 ng/ml, 250 μM ATP, 30 minutes at 30° C.
Experimental: Test to Measure ALK Kinase Inhibition
A ViewPlate (Packard) is incubated with the GST-PLCγ1 substrate (purified recombinant form) at 0.1 mg/ml in phosphate buffer (PBS pH 7.4)(100 μl/well) for one hour under shaking. The plate is then saturated with a blocking solution containing 5% bovine serum albumin (BSA) (SIGMA) in PBS buffer pH 7.4.
After adding the inhibitor at the desired final concentration (usual range of 30 μM to 10 nM), the reaction is conducted by adding the ALK kinase at 180 ng/ml in 13 mM Tris reaction buffer pH 7.5 (SIGMA); 6.5 mM MgCl2 (MERCK); 0.65 mM DiThioThreitol (DTT) (ACROS); 39 mM sodium β-glycerophosphate (TCI); 0.65 mM sodium orthovanadate (SIGMA) and 250 μM ATP (SIGMA). Incubation is carried out for 30 minutes at 30° C. under shaking.
After three washings under shaking in 0.1% PBS/Tween-20 buffer (SIGMA), an anti-phosphotyrosine antibody coupled with HRP (UBI) diluted to 1/1000th in PBS/BSA buffer 5 mg/ml, is incubated for one hour under shaking. After three further washings in 0.1% PBS/Tween-20, the wells are incubated two minutes with 100 μl of SuperSignal ELISA mixture (PIERCE).
The signal is read in luminescent mode using a luminometer (MOLECULAR DEVICES SpectraMax M5e).

ALK kinase, sequence (Q9UM73 19-1620): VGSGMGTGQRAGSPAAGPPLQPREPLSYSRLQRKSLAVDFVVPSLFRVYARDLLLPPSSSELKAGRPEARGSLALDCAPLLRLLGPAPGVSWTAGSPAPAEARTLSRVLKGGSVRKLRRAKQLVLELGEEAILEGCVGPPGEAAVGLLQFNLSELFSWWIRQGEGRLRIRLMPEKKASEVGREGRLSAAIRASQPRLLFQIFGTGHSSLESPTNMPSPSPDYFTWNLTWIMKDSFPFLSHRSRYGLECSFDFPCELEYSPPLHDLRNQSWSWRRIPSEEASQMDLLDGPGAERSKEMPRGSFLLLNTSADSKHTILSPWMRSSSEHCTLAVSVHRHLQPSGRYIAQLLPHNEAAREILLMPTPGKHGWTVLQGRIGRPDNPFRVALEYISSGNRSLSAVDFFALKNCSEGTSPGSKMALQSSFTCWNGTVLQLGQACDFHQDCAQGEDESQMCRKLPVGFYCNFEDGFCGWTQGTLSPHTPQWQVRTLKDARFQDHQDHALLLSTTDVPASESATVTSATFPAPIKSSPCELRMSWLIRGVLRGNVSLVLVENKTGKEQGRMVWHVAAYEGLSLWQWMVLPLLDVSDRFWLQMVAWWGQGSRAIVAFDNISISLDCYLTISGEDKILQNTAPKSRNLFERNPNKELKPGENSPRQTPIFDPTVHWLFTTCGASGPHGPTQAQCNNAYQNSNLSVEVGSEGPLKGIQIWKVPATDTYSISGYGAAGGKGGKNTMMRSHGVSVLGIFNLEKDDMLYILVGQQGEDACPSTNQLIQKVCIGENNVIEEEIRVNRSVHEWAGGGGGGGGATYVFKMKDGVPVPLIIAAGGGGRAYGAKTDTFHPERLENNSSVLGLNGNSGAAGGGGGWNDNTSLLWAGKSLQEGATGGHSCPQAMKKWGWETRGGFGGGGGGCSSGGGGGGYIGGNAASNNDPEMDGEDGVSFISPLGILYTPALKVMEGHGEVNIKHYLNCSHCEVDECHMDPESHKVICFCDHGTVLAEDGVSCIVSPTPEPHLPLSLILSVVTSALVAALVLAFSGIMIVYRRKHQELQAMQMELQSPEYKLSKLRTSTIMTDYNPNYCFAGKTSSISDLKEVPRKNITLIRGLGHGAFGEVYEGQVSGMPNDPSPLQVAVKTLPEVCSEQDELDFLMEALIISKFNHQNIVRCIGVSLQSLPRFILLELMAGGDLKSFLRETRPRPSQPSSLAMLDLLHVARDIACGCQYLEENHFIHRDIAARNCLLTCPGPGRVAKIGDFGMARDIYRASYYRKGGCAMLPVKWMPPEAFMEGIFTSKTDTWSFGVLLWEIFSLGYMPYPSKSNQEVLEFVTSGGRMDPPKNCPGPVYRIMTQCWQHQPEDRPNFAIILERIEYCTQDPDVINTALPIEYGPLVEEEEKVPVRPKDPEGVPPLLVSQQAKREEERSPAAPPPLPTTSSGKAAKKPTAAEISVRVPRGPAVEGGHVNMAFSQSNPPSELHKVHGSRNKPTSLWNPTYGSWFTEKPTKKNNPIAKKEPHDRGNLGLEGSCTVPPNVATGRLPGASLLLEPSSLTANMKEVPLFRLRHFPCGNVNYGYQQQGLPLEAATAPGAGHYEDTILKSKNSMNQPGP

| Compound | IC50 (karpas 299 cells; Homo sapiens, KARPAS-299, 72 h) [nM] | IC50 (ALK kinase) [nM] | IC50 (karpas 299 cells; 72 hours) [nM] |
| --- | --- | --- | --- |
| N#Cc1c(-c2cc3cc[nH]c3cc2F)nc2[nH]nc(N)c2c1-c1ccc(N2CCNCC2)cc1 [Compound 233] | > 10000 | 100 to 1000 | – |
| Cc1n[nH]c2nc(-c3ccc(O)cc3F)c(C#N)c(-c3ccc(N4CC[C@@H](O)C4)o3)c12 [Compound 156] | 100 to 1000 | < 100 | – |
| Cc1n[nH]c2nc(-c3ccc(O)cc3F)c(C#N)c(-c3ccc(-c4ccc(S(N)(=O)=O)cc4)o3)c12 [Compound 270] | > 10000 | 100 to 1000 | – |
| Cc1c(C#N)c(-c2ccc(O)cc2)nc2[nH]nc(-c3ccc(N4CCNCC4)cc3)c12 [Compound 96] | 1000 to 10000 | 100 to 1000 | – |
| Cc1n[nH]c2nc(-c3ccc(O)cc3)c(C#N)c(-c3ccco3)c12 [Compound 78] | 1000 to 10000 | 100 to 1000 | – |
| Cc1c(C#N)c(-c2ccc(O)cc2F)nc2[nH]nc(-c3ccc(N4CCNCC4)cc3)c12 [Compound 118] | 1000 to 10000 | < 100 | – |
| Cc1n[nH]c2nc(-c3ccc(O)cc3F)c(C#N)c(-c3ccc(N4CC[C@@H](N)C4)nc3)c12 [Compound 124] | 1000 to 10000 | < 100 | – |
| Cc1n[nH]c2cc(-c3ccc(O)cc3F)c(C#N)c(-c3ccco3)c12 [Compound 81] | 100 to 1000 | < 100 | – |
| Cc1c(C#N)c(-c2ccc(O)cc2)nc2[nH]nc(-c3ccnc(N4CCN(C)CC4)c3)c12 [Compound 103] | > 10000 | 100 to 1000 | – |
| Cc1n[nH]c2nc(-c3ccc(O)cc3F)c(C#N)c(-c3ccc(N4CCNCC4)o3)c12 [Compound 172] | 1000 to 10000 | 100 to 1000 | – |
| Cc1n[nH]c2nc(-c3ccc(O)cc3F)c(C#N)c(-c3ccc(N4CCNCC4)c([N+](=O)[O-])c3)c12 [Compound 209] | 1000 to 10000 | 100 to 1000 | – |
| CN(C)CCOc1ccc(-c2c(C#N)c(-c3ccc(O)cc3F)nc3[nH]nc(N)c23)cc1 [Compound 210] | 1000 to 10000 | 100 to 1000 | – |
| N#Cc1c(-c2ccc(O)cc2F)nc2[nH]ncc2c1-c1ccc(-c2ccc(S(N)(=O)=O)cc2)o1 [Compound 287] | 1000 to 10000 | < 100 | – |
| COC(=O)c1c(-c2ccc(O)cc2F)nc2[nH]nc(C)c2c1-c1ccc(N2CCNCC2)cc1 [Compound 284] | < 100 | < 100 | – |
| CN(C)CCCOc1ccc(-c2c(C#N)c(-c3ccc(O)cc3F)nc3[nH]nc(N)c23)cc1 [Compound 194] | 100 to 1000 | < 100 | – |
| N#Cc1c(-c2ccc(O)cc2)nc2[nH]ncc2c1-c1ccsc1 [Compound 50] | 1000 to 10000 | 100 to 1000 | – |
| N#Cc1c(-c2ccc(O)cc2F)nc2[nH]nc(N)c2c1-c1ccc(N2CCOCC2)o1 [Compound 183] | 1000 to 10000 | < 100 | – |
| Cc1c(C#N)c(-c2ccc(O)cc2)nc2[nH]nc(-c3cccc(N4CCNCC4)c3)c12 [Compound 106] | 1000 to 10000 | 100 to 1000 | – |
| COC(=O)c1c(-c2ccc(OC(=O)C(C)(C)C)cc2F)nc2[nH]nc(C)c2c1-c1ccc(N2CCNCC2)cc1 [Compound 300] | < 100 | < 100 | – |
| Cc1n[nH]c2nc(-c3c(F)cc(O)cc3F)c(C#N)c(-c3ccc(N4CCNCC4)cc3)c12 [Compound 154] | 100 to 1000 | < 100 | – |
| CCN(CC)CCSc1ccc(-c2c(C#N)c(-c3ccc(O)cc3F)nc3[nH]nc(C)c23)o1 [Compound 132] | > 10000 | < 100 | – |
| N#Cc1c(-c2ccc(O)cc2F)nc2[nH]nc(N)c2c1-c1ccc(OCCCN2CCCCC2)cc1 [Compound 203] | 1000 to 10000 | 100 to 1000 | – |
| COc1ccc(-c2nc3[nH]ncc3c(-c3ccc(C#CCN)o3)c2C#N)cc1 [Compound 288] | > 10000 | 1000 to 10000 | – |

| Compound | IC50 (karpas 299 cells; Homo sapiens, KARPAS-299, 72 h) [nM] | IC50 (ALK kinase) [nM] | IC50 (karpas 299 cells; 72 hours) [nM] |
| --- | --- | --- | --- |
| Cc1n[nH]c2nc(-c3ccc(O)cc3F)c(C#N)c(-c3ccc(C#N)cc3)c12 [Compound 148] | 1000 to 10000 | 1000 to 10000 | – |
| CCOC(=O)c1c(-c2c(F)ccc(F)c2F)nc2[nH]nc(-c3cccs3)c2c1-c1ccc(N2CCNCC2)cc1 [Compound 245] | 1000 to 10000 | 100 to 1000 | – |
| COC(=O)c1c(-c2ccc(O)cc2)nc2[nH]nc(C)c2c1-c1ccc(C)o1 [Compound 215] | 100 to 1000 | < 100 | – |
| N#Cc1c(-c2ccc(O)cc2)nc2[nH]ncc2c1-c1ccc(CCCN)o1 [Compound 289] | 100 to 1000 | < 100 | – |
| Cc1n[nH]c2nc(-c3ccc(O)cc3F)c(C#N)c(C3C[C@@H]3C(=O)N3CC[C@@H](N)C3)c12 (some centres unmarked) [Compound 147] | > 10000 | 1000 to 10000 | – |
| Cc1n[nH]c2nc(-c3ccc(O)cc3F)c(C#N)c(-c3ccc(N4CCNCC4)cc3)c12 [Compound 182] | – | < 100 | 1000 to 10000 |
| N#Cc1c(-c2ccc(O)c(F)c2)cc2[nH]ncc2c1-c1ccco1 [Compound 76] | 1000 to 10000 | 100 to 1000 | – |
| Cc1n[nH]c2nc(-c3ccc(O)cc3F)c(C#N)c(-c3ccc(N4CCC(N5CCCC5)CC4)o3)c12 [Compound 162] | 100 to 1000 | < 100 | – |
| N#Cc1c(-c2ccc(O)cc2F)nc2[nH]nc(-c3ccc(-c4ccccc4)cc3)c2c1-c1ccc(N2CCNCC2)cc1 [Compound 236] | 100 to 1000 | < 100 | – |
| CNC1CCN(c2ccc(-c3n[nH]c4nc(-c5ccc(O)cc5F)c(C#N)c(C)c34)cn2)C1 (centres unmarked) [Compound 123] | 1000 to 10000 | 100 to 1000 | – |
| Cc1n[nH]c2nc(-c3ccc(O)cc3F)c(C#N)c(C3C[C@@H]3C(=O)N3CCNCC3)c12 (some centres unmarked) [Compound 146] | > 10000 | 100 to 1000 | – |
| Cc1n[nH]c2nc(-c3cc4cc[nH]c4cc3F)c(C#N)c(-c3ccc(N4CCNCC4)cc3)c12 [Compound 234] | 1000 to 10000 | 100 to 1000 | – |
| Cc1n[nH]c2nc(-c3ccc(O)cc3F)c(C#N)c(-c3ccc(N4CC[C@H](N)C4)o3)c12 [Compound 134] | 1000 to 10000 | < 100 | – |
| N#Cc1c(-c2ccc(O)cc2F)nc2[nH]nc(N)c2c1-c1ccc(N2CC[C@H](N)C2)cc1 [Compound 188] | 1000 to 10000 | < 100 | – |
| N#Cc1c(-c2ccc(O)cc2F)nc2[nH]nc(N)c2c1-c1ccc(N2CCNCC2)c(F)c1 [Compound 193] | 1000 to 10000 | < 100 | – |
| N#Cc1c(-c2c(F)ccc(F)c2F)nc2[nH]nc(-c3cccs3)c2c1-c1ccc(N2CCNCC2)cc1 [Compound 221] | 1000 to 10000 | 100 to 1000 | – |
| N#Cc1c(-c2cncs2)nc2[nH]nc(-c3ccco3)c2c1-c1ccc(N2CCNCC2)cc1 [Compound 285] | 1000 to 10000 | < 100 | – |
| N#Cc1c(-c2ccc(O)cc2F)nc2[nH]ncc2c1-c1ccc(Br)o1 [Compound 117] | 100 to 1000 | < 100 | – |
| N#Cc1c(-c2ccc(O)cc2F)nc2[nH]ncc2c1-c1ccc(N2CCNCC2)cc1 [Compound 91] | 1000 to 10000 | < 100 | – |
| N#Cc1c(-c2ccc(O)cc2F)nc2[nH]ncc2c1-c1ccc(-c2nn[nH]n2)cc1 [Compound 101] | 1000 to 10000 | 1000 to 10000 | – |
| Cc1n[nH]c2nc(-c3ccc(O)cc3F)c(C#N)c(C(=O)NC3CCNCC3)c12 [Compound 168] | > 10000 | 1000 to 10000 | – |
| CC(=O)Oc1ccc(-c2nc3[nH]nc(-c4cccs4)c3c(-c3ccc(N4CCNCC4)cc3)c2C#N)c(F)c1 [Compound 298] | > 10000 | 100 to 1000 | – |
| CN1CCN(Cc2ccc(-c3c(C#N)c(-c4ccc(O)cc4)nc4[nH]ncc34)cc2)CC1 [Compound 47] | 1000 to 10000 | 1000 to 10000 | – |
